Experimental data: PubChem BioAssay (NCI)
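Grown in 96-well plates, cells were treated for 48 hours with each compound at five concentrations. Insufficient inhibition: endpoint recorded as highest concentration tested. TGI marks complete inhibition of growth.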

How the values were obtained:
Assay in all cases: NCI-60 cell line screen, 48 h
[1] = tested on: A549 NSCLC
[2] = tested on: KM12 colon
[3] = tested on: UACC-257 melanoma
[4] = tested on: SNB-19 CNS
[5] = tested on: 786-0 renal
[6] = tested on: OVCAR-3 ovarian
[7] = tested on: HL-60(TB) leukemia
[8] = tested on: SK-MEL-28 melanoma
[9] = tested on: HCT-15 colon
[10] = tested on: SR leukemia
[11] = tested on: MALME-3M melanoma
[12] = tested on: OVCAR-4 ovarian
[13] = tested on: COLO 205 colon
[14] = tested on: OVCAR-8 ovarian
[15] = tested on: NCI/ADR-RES ovarian
[16] = tested on: MDA-N
[17] = tested on: SF-268 CNS
[18] = tested on: UACC-62 melanoma
[19] = tested on: NCI-H460 lung
[20] = tested on: MOLT-4 leukemia
[21] = tested on: EKVX NSCLC
[22] = tested on: RXF 393 renal
[23] = tested on: A498 renal
[24] = tested on: T-47D breast
[25] = tested on: SN12C renal
[26] = tested on: BT-549 breast
[27] = tested on: LOX IMVI melanoma
[28] = tested on: HS 578T breast
[29] = tested on: NCI-H226 lung
[30] = tested on: DU-145 prostate
[31] = tested on: U251 CNS
[32] = tested on: HOP-62 NSCLC
[33] = tested on: SNB-75 CNS
[34] = tested on: CAKI-1 renal
[35] = tested on: M14 melanoma
[36] = tested on: MDA-MB-435
[37] = tested on: CCRF-CEM leukemia
[38] = tested on: SF-295 CNS
[39] = tested on: MDA-MB-231 breast
[40] = tested on: NCI-H522 lung
[41] = tested on: NCI-H23 lung
[42] = tested on: HOP-92 NSCLC
[43] = tested on: SK-OV-3 ovarian
[44] = tested on: SK-MEL-2 melanoma
[45] = tested on: ACHN renal
[46] = tested on: PC-3 prostate
[47] = tested on: SF-539 CNS
[48] = tested on: HCT-116 colon
[49] = tested on: OVCAR-5 ovarian
[50] = tested on: K-562 leukemia
[51] = tested on: SK-MEL-5 melanoma
[52] = tested on: SW-620 colon
[53] = tested on: HT29 colon
[54] = tested on: RPMI-8226 leukemia
[55] = tested on: UO-31 renal
[56] = tested on: IGROV1 ovarian
[57] = tested on: MCF7 breast
[58] = tested on: HCC-2998 colon
[59] = tested on: TK-10 renal

For `O=c1[nH]c2cc([N+](=O)[O-])c(N(CCO)CCO)c([N+](=O)[O-])c2[nH]1`, the TGI [1] was over 100 µM, the TGI [2] was 93.3 µM and the TGI [3] was 59.3 µM. For the same molecule, the TGI [4] was over 100 µM, the TGI [5] was over 100 µM and the TGI [6] was 33.3 µM. For the same molecule, the TGI [7] was 80.9 µM, the TGI [8] was 91.8 µM and the TGI [9] was over 100 µM. It also gave a TGI [10] of over 100 µM, a TGI [11] of over 100 µM and a TGI [12] of over 100 µM. The TGI [13] was 51.8 µM, the TGI [14] was over 100 µM and the TGI [15] was over 100 µM. For the same molecule, the TGI [16] was over 100 µM, the TGI [17] was over 100 µM and the TGI [18] was 72.1 µM. The TGI [19] was 43.2 µM, the TGI [20] was 91.7 µM and the TGI [21] was 54.4 µM. It also gave a TGI [22] of 49.4 µM, a TGI [23] of 66 µM and a TGI [24] of 80.5 µM. For the same molecule, the TGI [25] was over 100 µM, the TGI [26] was 51.7 µM and the TGI [27] was over 100 µM. The TGI [28] was over 100 µM, the TGI [29] was 71.4 µM and the TGI [30] was over 100 µM. The TGI [31] was over 100 µM, the TGI [32] was over 100 µM and the TGI [33] was 89.4 µM. It also gave a TGI [34] of over 100 µM, a TGI [35] of 89 µM and a TGI [36] of 91.7 µM. It also gave a TGI [37] of over 100 µM, a TGI [38] of over 100 µM and a TGI [39] of over 100 µM. It also gave a TGI [40] of over 100 µM, a TGI [41] of over 100 µM and a TGI [42] of over 100 µM. For the same molecule, the TGI [43] was 89.7 µM, the TGI [44] was 96.1 µM and the TGI [45] was over 100 µM. The TGI [46] was over 100 µM, the TGI [47] was 77.1 µM and the TGI [48] was 87.5 µM. The TGI [49] was over 100 µM, the TGI [50] was over 100 µM and the TGI [51] was 39.7 µM. For the same molecule, the TGI [52] was over 100 µM, the TGI [53] was over 100 µM and the TGI [54] was 98.1 µM. It also gave a TGI [55] of over 100 µM, a TGI [56] of over 100 µM and a TGI [57] of over 100 µM.

For `O=C(Nc1ccc(Cl)cc1)c1cc(S(=O)(=O)NC2=NC(c3ccccc3)c3cc(Cl)ccc3N2)c(SSc2cc(Cl)c(C(=O)Nc3ccc(Cl)cc3)cc2S(=O)(=O)NC2=NC(c3ccccc3)c3cc(Cl)ccc3N2)cc1Cl` (stereo unspecified), the TGI [1] was over 100 µM, the TGI [2] was over 100 µM and the TGI [3] was over 100 µM. The TGI [4] was over 100 µM, the TGI [5] was over 100 µM and the TGI [6] was over 100 µM. The TGI [7] was over 42.6 µM, the TGI [8] was over 100 µM and the TGI [9] was over 100 µM. For the same molecule, the TGI [10] was 58.5 µM, the TGI [11] was over 100 µM and the TGI [12] was over 100 µM. It also gave a TGI [13] of over 100 µM, a TGI [14] of over 100 µM and a TGI [15] of over 100 µM. It also gave a TGI [16] of over 100 µM, a TGI [17] of over 100 µM and a TGI [18] of over 100 µM. It also gave a TGI [19] of over 100 µM, a TGI [20] of over 61.6 µM and a TGI [21] of over 100 µM. For the same molecule, the TGI [22] was over 100 µM, the TGI [23] was over 100 µM and the TGI [24] was over 100 µM. It also gave a TGI [25] of over 100 µM, a TGI [26] of over 100 µM and a TGI [58] of over 100 µM. For the same molecule, the TGI [27] was over 100 µM, the TGI [28] was over 100 µM and the TGI [29] was over 100 µM. The TGI [30] was over 100 µM, the TGI [31] was over 100 µM and the TGI [32] was over 100 µM. For the same molecule, the TGI [33] was over 100 µM, the TGI [34] was over 100 µM and the TGI [35] was over 100 µM. The TGI [59] was over 100 µM, the TGI [36] was over 100 µM and the TGI [37] was over 40.1 µM. For the same molecule, the TGI [38] was over 100 µM, the TGI [39] was over 100 µM and the TGI [40] was over 100 µM. The TGI [41] was over 100 µM, the TGI [42] was over 100 µM and the TGI [43] was over 100 µM. For the same molecule, the TGI [44] was over 100 µM, the TGI [45] was over 100 µM and the TGI [46] was over 100 µM. The TGI [47] was over 100 µM, the TGI [48] was over 100 µM and the TGI [49] was over 100 µM. It also gave a TGI [50] of over 100 µM, a TGI [51] of over 100 µM and a TGI [52] of over 100 µM. It also gave a TGI [53] of over 100 µM, a TGI [54] of over 100 µM and a TGI [55] of over 100 µM. For the same molecule, the TGI [56] was over 100 µM and the TGI [57] was over 100 µM.
